Assay [1] has as its system fecal coliform. Put plainly: Secondary sludge full-scale test: fecal coliform reduction by chlorine dioxide. The conditions noted are these: for Fecal coliform: secondary sludge, 10 minutes contact time. It counts as cell-based. The procedure:
Treatment of non-digested wastewater sludge with chlorine dioxide allows the material to meet Class B pathogen reduction requirements prior to digestion by reducing the fecal coliform concentrations to levels much lower than the Class B standard (<2,000,000 fecal coliform bacteria) with less than 15 minutes contact time. The resulting biosolids cake has no odor.
In this test, chlorine dioxide was generated on-site, and was injected (at varying concentrations) into a 100 gpm sludge flow passing through a 4 inch diameter pipe. The pipe length was sufficient to allow 10 minutes of contact time between the sludge and the chlorine dioxide prior to dewatering the material.

For assay [2], the system named is anaerobic digester. Put plainly: Methane production in anaerobic digestion of chlorine dioxide pretreated WAS. Conditions: versus non-pretreated WAS, measured. The procedure:
Treatment of non-digested wastewater sludge with chlorine dioxide to solubilized the sludge and make nutrients bio-available and then feeding this material into an established anaerobic digester once the chlorine dioxide residual has been reduced improves gas (methane) production in an anaerobic digester. A generally accepted estimate for methane production at 35° C. is 0.25 kg methane per kg COD consumed. One kmol of methane is equivalent with a mass of 16 kg. Per definition, the COD equivalent of 1 kmol of methane is the mass of the amount of oxygen required for complete oxidation according to the formula: CH4+2O2→CO2+2H2O The mass of the 2O2 is 2 kmol of oxygen or 64 kg. Thus 64 kg Oxygen Demand is equivalent with 16 kg of methane, or 1 kg of oxygen demand (COD) is equivalent with 16/64=0.25 kg methane.
This increase in soluble COD represents 10-11% of the total COD concentration of the sludge, and represents a 2000% increase in soluble COD. The inventors believe that the higher the s-COD the higher capacity for methane production. The resulting increase in methane production as a result of this enhancement of anaerobic digestion has been measured as a greater than 50% increase utilizing this method, and is expected to be in the range of 100% or more over non-pretreated WAS. […]

For assay [3], the system named is Waste activated sludge (WAS). The assay is described as follows: Waste activated sludge solubilization by chlorine dioxide in digesters (soluble COD, NH4, PO4, volatile solids). As for the experimental part: Waste activated sludge (WAS) was obtained from a local municipal WWTP which removes cBOD only and uses a pure oxygen system. In order to achieve similar experiment conditions and be consistent with the previous pilot experiment, the solids concentration was adjusted to approximately 7 g/L. Three digesters were set up and treated with chlorine dioxide dosages of 100, 150 and 200 mg/L respectively. The digesters were operated for 24 hours. Samples were taken at time intervals of 10 min, 1 h, 6 h, 12 h and 24 h to represent different contact time.
This confirmed that chlorine dioxide contact time is the key factor for WAS solubilization. The increased soluble COD concentration can be expressed as 10-11% of TCOD which is quite significant. It was also observed that soluble COD concentration at contacting time of 6 hr was approximately 55-66% of the soluble COD at time 24 hrs. […] The increase of soluble COD corresponded to the volatile solids destruction of 4-6% with different chlorine dioxide treatment dosage.
This is considered insignificant. The PO4 increase was much higher and equaled 16 to 28.3 mg P/L after 24 h. Higher phosphorus than nitrogen release can be attributed to the chlorine dioxide treatment which breaks down the cell walls resulting in the release of unbound orthophosphate PO4—P. The nitrogen in the cells is in the form of organic nitrogen (amino acids) and enzymes are required to convert organic nitrogen to ammonia nitrogen. The low pH resulting from the chlorine dioxide treatment may have deactivated the enzyme activity, therefore no/insignificant NH4—N increase was detected.

[4] abbreviates: chlorine dioxide 100-200 mg/L, 24 h.

For the molecule `[O][Cl+][O-]` [chlorine dioxide], the “fecal coliform concentrations after treatment (Class B standard)” value in assay [1] (non-digested wastewater sludge, less than 15 minutes contact time) is reported as < 2,000,000 fecal coliform bacteria. Besides, the Fecal coliform is listed as 1,800 MPN/g in assay [1] (ClO2 dose rate 64 mg/L); “BDL” in assay [1] (ClO2 dose rate 80 mg/L); “BDL” in assay [1] (ClO2 dose rate 96 mg/L); “BDL” in assay [1] (ClO2 dose rate 128 mg/L); “BDL*” in assay [1] (ClO2 dose rate 160 mg/L). Moreover, the “increase in methane production” value in assay [2] was “greater than 50%”. Moreover, the “soluble COD at contact time 6 hr as share of soluble COD at 24 hrs” value in assay [3] (chlorine dioxide 100-200 mg/L) was 55-66%. Moreover, in assay [3] (setting [4]), the “increase in soluble COD” value stood at 2000%. The “increase in soluble COD as share of total COD (TCOD)” value in assay [3] (setting [4]) is recorded as 10-11%. In addition, in assay [3] (different chlorine dioxide treatment dosage (100-200 mg/L)), the volatile solids destruction is recorded as 4-6%.

The values are drawn from US9758401B2, “Digestion of biosolids in wastewater” (BCR ENVIRONMENTAL CORPORATION, priority 2009, dated 2017).
